# Test results from ChEMBL document CHEMBL6096634, “Exploration of novel 20S proteasome activators featuring anthraquinone structures and their application in hypoxic cardiomyocyte protection” (Bioorg Med Chem, 2024).
# Values joined by “and” are separate entries in the source; they are usually repeats but may differ in a detail not shown here. Equal entries are not always repeated. Active and inactive are the calls of the source. The rule behind the calls is not given here.
# Legend:
# H9c2 [1] = assay: Effect on PCNA expression in rat H9c2 cells at 0.25 uM under normoxic condition by qRT-PCR analysis; type: functional, cell-based
# H9c2 [2] = assay: Protection against hypoxia-induced cell damage in rat H9c2 cells at 0.025 uM incubated for 14 hrs by MTT assay; type: functional, cell-based
# H9c2 [3] = assay: Upregulation of Ki-67 expression in rat H9c2 cells at 0.25 uM under hypoxic condition by qRT-PCR analysis; type: functional, cell-based
# [4] = target: T1, 20S proteasome (Homo sapiens) (UniProt P49721+P20618+P28074+P28062+P28065+P28072+P25786+P25787+P25788+P25789+P28066+P60900+O14818+Q8TAA3+P40306+A5LHX3+P49720+P28070+Q99436); assay: (§1) Activation of human erythrocyte-derived 20s proteosome using CT-L as peptide substrate by fluorescence based analysis; type: cell-based; conditions: for EC200: filed as activator
# 20S proteasome [5] = assay: as §1; type: cell-based
# H9c2 [6] = assay: Effect on PCNA expression in rat H9c2 cells at 0.25 uM under hypoxic condition by qRT-PCR analysis; type: functional, cell-based
# [7] = target: T1, 20S proteasome (Homo sapiens); assay: Activation of human erythrocyte-derived 20s proteosome using CT-L as peptide substrate at 10 uM by fluorescence based analysis relative to control; type: cell-based; conditions: filed as activator
# HEK293 = assay: Inhibition of […]-induced ER stress in HEK293 cells harbouring XBP1-delta DBD-Luc cells assessed as decrease in luciferase activity incubated for 8 hrs by […]; type: functional, cell-based; conditions: Homo sapiens, dose 10-20 µM
# H9c2 [8] = assay: Upregulation of Ki-67 expression in rat H9c2 cells at 0.25 uM under normoxic condition by qRT-PCR analysis; type: functional, cell-based
# [9] = target: T1, 20S proteasome (Homo sapiens); assay: (§2) Activation of human erythrocyte-derived 20s proteosome using T-L as peptide substrate by fluorescence based analysis; type: cell-based; conditions: filed as activator
# H9c2 [10] = assay: Protection against hypoxia-induced cell damage in rat H9c2 cells at 0.05 uM incubated for 14 hrs by MTT assay; type: functional, cell-based
# [11] = target: T1, 20S proteasome (Homo sapiens); assay: Activation of human erythrocyte-derived 20s proteosome assessed as fold maximum enhancement using CT-L as peptide substrate by fluorescence based analysis; type: cell-based; conditions: filed as activator
# [12] = target: T1, 20S proteasome (Homo sapiens); assay: (§3) Activation of human erythrocyte-derived 20s proteosome using Casp-L as peptide substrate by fluorescence based analysis; type: cell-based; conditions: filed as activator
# 20S proteasome [13] = assay: as §3; type: cell-based
# [14] = target: 26S proteasome (Homo sapiens) (UniProt Q99460+P49721+P20618+P28074+P28062+P28065+P28072+O00487+P25786+P25787+P25788+P25789+P28066+P60900+O14818+Q8TAA3+P40306+A5LHX3+P49720+P28070+Q99436+Q16186+P35998+P62191+P43686+P62333+P17980+P62195+Q13200+O43242+O00232+O00231+Q15008+P51665+Q9UNM6+P55036+P48556+P60896); assay: Activation of 26s proteosome (unknown origin); type: protein-complex assay
# [15] = target: T1, 20S proteasome (Homo sapiens); assay: Activation of human erythrocyte-derived 20s proteosome assessed as fold maximum enhancement using T-L as peptide substrate by fluorescence based analysis; type: cell-based; conditions: filed as activator
# 20S proteasome [16] = assay: as §2; type: cell-based
# [17] = target: T1, 20S proteasome (Homo sapiens); assay: Activation of human erythrocyte-derived 20s proteosome assessed as fold maximum enhancement using Casp-L as peptide substrate by fluorescence based analysis; type: cell-based; conditions: filed as activator
# [18] = target: T1, 20S proteasome (Homo sapiens); assay: Activation of 20s proteosome (unknown origin) mediated chymotrypsin-like activity assessed as fold maximum enhancement; type: protein-complex assay; conditions: filed as activator
# 20S proteasome [19] = assay: (§4) Activation of 20s proteosome (unknown origin) mediated chymotrypsin-like activity; type: protein-complex assay, Homo sapiens
# H9c2 [20] = assay: Anti-apoptotic activity in rat H9c2 cells assessed as viable cells at 0.1 uM preincubated for 24 hrs followed by incubation under hypoxic condition for 18 hrs by Annexin V-FITC and PI staining based flow cytometry analysis (reference value: 85.85%); type: functional; conditions: time 42 hrs, read-out: Activity
# H9c2 [21] = assay: Effect on PCNA expression in rat H9c2 cells at 0.1 uM under hypoxic condition by qRT-PCR analysis; type: functional, cell-based
# H9c2 [22] = assay: Anti-apoptotic activity in rat H9c2 cells at 0.1 uM preincubated for 24 hrs followed by incubation under hypoxic condition for 18 hrs by Annexin V-FITC and PI staining based flow cytometry analysis; type: functional, cell-based; conditions: time 42.0 hrs
# H9c2 [23] = assay: Effect on PCNA expression in rat H9c2 cells at 0.1 uM under normoxic condition by qRT-PCR analysis; type: functional, cell-based
# H9c2 [24] = assay: Anti-apoptotic activity in rat H9c2 cells at 0.1 uM under normoxic condition by TUNEL staining based analysis; type: functional, cell-based
# H9c2 [25] = assay: Upregulation of Ki-67 expression in rat H9c2 cells at 0.1 uM under hypoxic condition by qRT-PCR analysis; type: functional, cell-based
# H9c2 [26] = assay: Anti-apoptotic activity in rat H9c2 cells assessed as necrotic cells at 0.1 uM preincubated for 24 hrs followed by incubation under hypoxic condition for 18 hrs by Annexin V-FITC and PI staining based flow cytometry analysis (reference value: 0.50%); type: functional; conditions: time 42 hrs
# H9c2 [27] = assay: Protection against hypoxia-induced cell damage in rat H9c2 cells at 0.1 uM incubated for 14 hrs by MTT assay; type: functional, cell-based
# H9c2 [28] = assay: Anti-apoptotic activity in rat H9c2 cells assessed as early apoptotic cells at 0.1 uM preincubated for 24 hrs followed by incubation under normoxic condition for 18 hrs by Annexin V-FITC and PI staining based flow cytometry analysis (reference value: 0.75%); type: functional; conditions: time 42 hrs
# H9c2 [29] = assay: Anti-apoptotic activity in rat H9c2 cells assessed as necrotic cells at 0.1 uM preincubated for 24 hrs followed by incubation under normoxic condition for 18 hrs by Annexin V-FITC and PI staining based flow cytometry analysis (reference value: 0.60%); type: functional; conditions: time 42 hrs
# H9c2 [30] = assay: Anti-apoptotic activity in rat H9c2 cells at 0.1 uM under hypoxic condition by TUNEL staining based analysis; type: functional, cell-based
# H9c2 [31] = assay: Anti-apoptotic activity in rat H9c2 cells assessed as early apoptotic cells at 0.1 uM preincubated for 24 hrs followed by incubation under hypoxic condition for 18 hrs by Annexin V-FITC and PI staining based flow cytometry analysis (reference value: 4.06%); type: functional; conditions: time 42 hrs
# H9c2 [32] = assay: Anti-apoptotic activity in rat H9c2 cells at 0.1 uM preincubated for 24 hrs followed by incubation under normoxic condition for 18 hrs by Annexin V-FITC and PI staining based flow cytometry analysis; type: functional, cell-based; conditions: time 42.0 hrs
# H9c2 [33] = assay: Anti-apoptotic activity in rat H9c2 cells assessed as late apoptotic cells at 0.1 uM preincubated for 24 hrs followed by incubation under normoxic condition for 18 hrs by Annexin V-FITC and PI staining based flow cytometry analysis (reference value: 3.68%); type: functional; conditions: time 42 hrs
# H9c2 [34] = assay: Anti-apoptotic activity in rat H9c2 cells assessed as late apoptotic cells at 0.1 uM preincubated for 24 hrs followed by incubation under hypoxic condition for 18 hrs by Annexin V-FITC and PI staining based flow cytometry analysis (reference value: 8.60%); type: functional; conditions: time 42 hrs
# H9c2 [35] = assay: Upregulation of Ki-67 expression in rat H9c2 cells at 0.1 uM under normoxic condition by qRT-PCR analysis; type: functional, cell-based
# H9c2 [36] = assay: Anti-apoptotic activity in rat H9c2 cells assessed as viable cells at 0.1 uM preincubated for 24 hrs followed by incubation under normoxic condition for 18 hrs by Annexin V-FITC and PI staining based flow cytometry analysis (reference value: 94.7%); type: functional; conditions: time 42 hrs, read-out: Activity
# [37] = target: T1, 20S proteasome (Homo sapiens); assay: as §4; type: protein-complex assay; conditions: filed as activator
SMILES,EC200 [4],EC50 (20S proteasome [5]),Activity [7] [%],fold change (FC) [9],further results
COc1ccc(Nc2cc(NCC(C)C)c(N)c3c2C(=O)c2ccccc2C3=O)cc1,0.61 µM,1570 nM,360,5.03,Activity (H9c2 [1]): inactive; Activity (H9c2 [2]): Active; Activity (H9c2 [3]): Active; Activity (H9c2 [6]): inactive; inhibition (HEK293): Active; Activity (H9c2 [8]): Active
O=C(Nc1ccc(N2CCOCC2)cc1)c1cc(O)c2c(c1)C(=O)c1cccc(O)c1C2=O,0.2 µM,1800 nM,552,6.36,Activity (H9c2 [2]): Active
O=C1c2ccccc2-c2onc3c(NCN4CCCCC4)cc(NCN4CCCCC4)c1c23,,,78.4,,Activity [4]: inactive
Cc1cccc(Nc2cc(NCCN3CCOCC3)c3noc4c3c2C(=O)c2ccccc2-4)c1,,,47.9,,Activity [4]: inactive
O=C(NCCN1CCOCC1)c1cc(O)c2c(c1)C(=O)c1cccc(O)c1C2=O,,,68.6,,Activity [4]: inactive
Cc1cccc(NC(=O)c2cc(O)c3c(c2)C(=O)c2cccc(O)c2C3=O)c1,1.67 µM,2260 nM,567,6.5,
O=C1c2cccc(O)c2C(=O)c2c(O)cc(C(=O)N3CCC(c4ccccc4)CC3)cc21,1.37 µM,2720 nM,233,3.71,
Cc1ccc(Nc2cc(NCC(C)C)c(N)c3c2C(=O)c2ccccc2C3=O)cc1,0.66 µM,3680 nM,377,5.38,Activity (H9c2 [1]): inactive; Activity (H9c2 [3]): Active; Activity (H9c2 [10]): Active; Activity (H9c2 [6]): inactive; inhibition (HEK293): Active; Activity (H9c2 [8]): Active
COc1ccc(NC(=O)c2cc(O)c3c(c2)C(=O)c2cccc(O)c2C3=O)cc1,0.32 µM,2050 nM,696,8.91,
O=C1c2cccc(O)c2C(=O)c2c(O)cc(C(=O)N3CCc4ccccc4C3)cc21,1.14 µM,4020 nM,350,3.79,
Cc1cccc(Nc2cc(NCCO)c3noc4c3c2C(=O)c2ccccc2-4)c1,,,119,,Activity [4]: inactive
CN(CCc1ccccc1)C(=O)c1cc(O)c2c(c1)C(=O)c1cccc(O)c1C2=O,,,148,,Activity [4]: inactive
CC1(C)CC[C@]2(C(=O)O)CC[C@]3(C)C(=CC[C@@H]4[C@@]5(C)CC[C@H](O)C(C)(C)[C@@H]5CC[C@]43C)[C@@H]2C1 [OLEANOLIC_ACID],,,,,fold change (FC) [18]: 8; EC50 (20S proteasome [19]): 2700 nM
CC(C)CNC(=O)c1cc(O)c2c(c1)C(=O)c1cccc(O)c1C2=O,2.15 µM,2570 nM,376,2.23,
O=C1c2cccc(O)c2C(=O)c2c(O)cc(C(=O)N3CCN(c4nccs4)CC3)cc21,1.18 µM,3570 nM,453,4.07,
CN1CCN(c2ccc(NC(=O)c3cc(O)c4c(c3)C(=O)c3cccc(O)c3C4=O)cc2)CC1,3.85 µM,6120 nM,549,7.32,
CCOC(=O)[C@]1(c2ccccc2)N=C(c2ccc(OC)cc2)N(Cc2ccccc2)[C@@H]1c1ccc(NCc2ccccc2)cc1,0.91 µM,,438,4.31,fold change (FC) [18]: 8.3; EC200 [37]: 1.4 µM

# More lines, main results first:
EC200 [4],EC50 (20S proteasome [5]),Activity [7] [%],fold change (FC) [9],SMILES,further results
0.12 µM,1330 nM,425,5.83,CC(C)CNc1cc(Nc2ccc(N3CCOCC3)cc2)c2c3c(onc13)-c1ccccc1C2=O,Activity (H9c2 [10]): Active; inhibition (HEK293): Active
0.7 µM,3020 nM,276,3.54,COc1ccc(Nc2cc(NCC(C)C)c3noc4c3c2C(=O)c2ccccc2-4)cc1,
0.72 µM,3000 nM,359,4.8,Cc1ccc(Nc2cc(NCC(C)C)c3noc4c3c2C(=O)c2ccccc2-4)cc1,
0.46 µM and 0.38 µM,1830 nM and 850 nM,472,5.98,Cc1cccc(Nc2cc(NCC(C)C)c3noc4c3c2C(=O)c2ccccc2-4)c1,Activity (H9c2 [2]): Active; fold change (FC) [11]: 6.22; EC200 [12]: 0.93 µM; EC50 (20S proteasome [13]): 1900 nM; inhibition (HEK293): Active; Activity [14]: inactive; fold change (FC) [15]: 4.37; EC200 [9]: 0.75 µM; EC50 (20S proteasome [16]): 2330 nM; fold change (FC) [17]: 9.77
0.19 µM,2090 nM,175,2.08,Cc1cccc(Nc2cc(NCCC(C)C)c3noc4c3c2C(=O)c2ccccc2-4)c1,
0.4 µM,4360 nM,594,10.6,CCCNc1cc(Nc2cccc(C)c2)c2c3c(onc13)-c1ccccc1C2=O,
1.41 µM,3300 nM,361,4.71,CC(C)CNc1cc(NC2CC2)c2c3c(onc13)-c1ccccc1C2=O,
0.67 µM,3380 nM,486,6.38,Cc1ccccc1Nc1cc(NCC(C)C)c2noc3c2c1C(=O)c1ccccc1-3,viability at 0.1 µM (H9c2 [20]): 92.8%; Activity (H9c2 [21]): inactive; Activity (H9c2 [22]): Active; Activity (H9c2 [23]): inactive; Activity (H9c2 [24]): inactive; Activity (H9c2 [10]): Active; Activity (H9c2 [25]): Active; Activity (H9c2 [26]): 1.34%; inhibition (HEK293): Active; Activity (H9c2 [27]): Active; Activity (H9c2 [28]): 0.65%; Activity (H9c2 [29]): 1.3%; Activity (H9c2 [30]): Active; Activity (H9c2 [31]): 1.18%; Activity (H9c2 [32]): inactive; Activity (H9c2 [33]): 3.53%; Activity (H9c2 [34]): 4.73%; Activity (H9c2 [35]): Active; viability at 0.1 µM (H9c2 [36]): 94.6%
